Test [1] addresses Serine/threonine-protein kinase PLK1 (Homo sapiens) (UniProt P53350). The experiment in a line: Binding affinity to wild-type human partial length PLK1 (A33 to F325 residues) expressed in mammalian expression system assessed as residual binding level at 10 uM by Kinomescan method relative to control.
The target of test [2] is MAP kinase-interacting serine/threonine-protein kinase 2 (Homo sapiens) (UniProt Q9HBH9). Briefly: Binding affinity to wild-type human partial length MKNK2 (G63 to S388 residues) expressed in mammalian expression system assessed as residual binding level at 10 uM by Kinomescan method relative to control.
For test [3], the target named is Serine/threonine-protein kinase MRCK beta (Homo sapiens) (UniProt Q9Y5S2). Briefly: Binding affinity to wild-type human partial length MRCKB (L56 to S417 residues) expressed in bacterial expression system assessed as residual binding level at 10 uM by Kinomescan method relative to control.
Serine/threonine-protein kinase MRCK beta (Homo sapiens), sequence (Q9Y5S2 whole entry, the tested form may be a part): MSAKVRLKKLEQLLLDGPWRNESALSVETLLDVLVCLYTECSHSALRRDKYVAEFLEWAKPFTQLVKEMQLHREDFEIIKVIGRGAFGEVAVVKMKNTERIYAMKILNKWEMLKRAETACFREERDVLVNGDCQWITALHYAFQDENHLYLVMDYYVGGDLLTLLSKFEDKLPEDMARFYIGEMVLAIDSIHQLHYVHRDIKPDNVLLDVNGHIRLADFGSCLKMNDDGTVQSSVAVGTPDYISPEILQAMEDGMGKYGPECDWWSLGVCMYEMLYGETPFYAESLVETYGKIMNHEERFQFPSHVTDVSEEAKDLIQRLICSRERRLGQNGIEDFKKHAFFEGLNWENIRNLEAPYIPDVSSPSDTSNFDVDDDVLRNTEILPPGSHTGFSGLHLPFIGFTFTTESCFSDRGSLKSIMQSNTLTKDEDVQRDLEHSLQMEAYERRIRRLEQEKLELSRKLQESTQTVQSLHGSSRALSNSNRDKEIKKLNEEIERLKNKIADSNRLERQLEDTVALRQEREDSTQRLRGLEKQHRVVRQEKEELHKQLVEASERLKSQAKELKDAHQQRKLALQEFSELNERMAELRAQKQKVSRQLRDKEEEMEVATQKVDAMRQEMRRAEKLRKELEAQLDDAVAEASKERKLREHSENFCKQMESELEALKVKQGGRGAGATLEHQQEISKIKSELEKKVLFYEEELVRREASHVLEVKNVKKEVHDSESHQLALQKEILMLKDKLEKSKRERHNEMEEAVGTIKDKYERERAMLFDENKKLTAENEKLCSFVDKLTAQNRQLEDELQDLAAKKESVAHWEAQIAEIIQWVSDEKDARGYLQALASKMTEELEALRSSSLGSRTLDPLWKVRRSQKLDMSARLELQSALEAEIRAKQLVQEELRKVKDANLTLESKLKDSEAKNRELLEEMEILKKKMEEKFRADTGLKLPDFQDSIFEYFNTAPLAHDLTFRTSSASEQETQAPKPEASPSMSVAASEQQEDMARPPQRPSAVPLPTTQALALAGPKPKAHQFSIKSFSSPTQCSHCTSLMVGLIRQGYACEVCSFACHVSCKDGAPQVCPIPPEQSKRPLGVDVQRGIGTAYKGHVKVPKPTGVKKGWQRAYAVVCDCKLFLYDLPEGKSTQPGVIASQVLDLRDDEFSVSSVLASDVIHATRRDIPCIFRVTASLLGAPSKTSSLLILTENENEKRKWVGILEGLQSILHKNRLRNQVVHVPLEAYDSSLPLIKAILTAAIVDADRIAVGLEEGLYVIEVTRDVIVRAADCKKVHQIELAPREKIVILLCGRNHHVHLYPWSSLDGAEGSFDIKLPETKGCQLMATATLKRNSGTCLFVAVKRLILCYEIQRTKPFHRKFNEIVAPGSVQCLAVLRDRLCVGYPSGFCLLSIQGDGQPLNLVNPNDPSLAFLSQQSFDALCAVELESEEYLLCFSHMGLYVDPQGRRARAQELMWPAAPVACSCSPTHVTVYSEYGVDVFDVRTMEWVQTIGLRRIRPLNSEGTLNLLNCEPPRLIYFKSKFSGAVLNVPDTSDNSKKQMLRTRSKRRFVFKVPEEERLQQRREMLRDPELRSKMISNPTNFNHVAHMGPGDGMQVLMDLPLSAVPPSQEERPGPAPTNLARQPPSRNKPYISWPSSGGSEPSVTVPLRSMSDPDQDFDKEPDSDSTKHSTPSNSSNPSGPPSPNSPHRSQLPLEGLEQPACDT
The target in test [4] is MAP kinase-interacting serine/threonine-protein kinase 1 (Homo sapiens) (UniProt Q9BUB5). Briefly: Binding affinity to wild-type human full length MKNK1 (M1 to L424 residues) expressed in mammalian expression system assessed as residual binding level at 10 uM by Kinomescan method relative to control.
Test [5] concerns ALK tyrosine kinase receptor (Homo sapiens), Q9UM73 [C1156Y]. Briefly: Binding affinity to […] human partial length ALK C1156Y mutant (I1088 to E1409 residues) expressed in mammalian expression system assessed as residual binding level at 10 uM by Kinomescan method relative to control.
In test [6] the test system is Tyrosine-protein kinase ABL1 (Homo sapiens), P00519 [M351T]. Briefly: Binding affinity to human phosphorylated ABL1 M351T mutant (S229 to K512 residues) expressed in mammalian expression system assessed as residual binding level at 10 uM by Kinomescan method relative to control.
The target in test [7] is Ephrin type-B receptor 1 (Homo sapiens) (UniProt P54762). The experiment in a line: Binding affinity to wild-type human partial length EPHB1 (P589 to T911 residues) expressed in bacterial expression system assessed as residual binding level at 10 uM by Kinomescan method relative to control.
The target in test [8] is Death-associated protein kinase 3 (Homo sapiens) (UniProt O43293). Briefly: Binding affinity to wild-type human partial length DAPK3 (M1 to A277 residues) expressed in bacterial expression system assessed as residual binding level at 10 uM by Kinomescan method relative to control.
Test [9] concerns the target Death-associated protein kinase 1 (Homo sapiens) (UniProt P53355). Briefly: Binding affinity to wild-type human partial length DAPK1 (M1 to F296 residues) expressed in bacterial expression system assessed as residual binding level at 10 uM by Kinomescan method relative to control.
Test [10] relates to Neutrophil. Briefly: Inhibition of PMA-induced NETosis in human neutrophils at 25 uM preincubated for 30 mins followed by PMA stimulation and measured after 3 hrs by Hoechst […] staining based fluorescence microscopic analysis. The test is classed as functional, cell-based.
Test [11] addresses Mitogen-activated protein kinase 11 (Homo sapiens) (UniProt Q15759). The experiment in a line: Binding affinity to wild-type human full length p38-beta (M1 to Q364 residues) expressed in bacterial expression system assessed as residual binding level at 10 uM by Kinomescan method relative to control.
The target of test [12] is Dual specificity protein kinase CLK1 (Homo sapiens) (UniProt P49759). The experiment in a line: Binding affinity to wild-type human full length CLK1 (M1 to I484 residues) expressed in bacterial expression system assessed as residual binding level at 10 uM by Kinomescan method relative to control.
Dual specificity protein kinase CLK1 (Homo sapiens), sequence (P49759 whole entry, looked up, the tested form may be a part): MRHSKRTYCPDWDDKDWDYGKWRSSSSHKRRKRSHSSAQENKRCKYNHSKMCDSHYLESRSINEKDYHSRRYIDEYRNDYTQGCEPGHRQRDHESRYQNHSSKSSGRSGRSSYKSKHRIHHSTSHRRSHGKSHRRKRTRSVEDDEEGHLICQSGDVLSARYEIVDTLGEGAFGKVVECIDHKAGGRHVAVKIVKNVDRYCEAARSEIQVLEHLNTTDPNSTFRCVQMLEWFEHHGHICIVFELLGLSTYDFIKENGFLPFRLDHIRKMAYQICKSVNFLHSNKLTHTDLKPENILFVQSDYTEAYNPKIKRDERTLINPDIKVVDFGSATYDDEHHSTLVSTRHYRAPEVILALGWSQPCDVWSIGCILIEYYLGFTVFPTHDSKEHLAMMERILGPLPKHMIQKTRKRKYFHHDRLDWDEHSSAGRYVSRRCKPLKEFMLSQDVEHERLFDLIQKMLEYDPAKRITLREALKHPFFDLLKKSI
For test [13], the system named is Tyrosine-protein kinase ABL1 (Homo sapiens), P00519 [T315I]. The experiment in a line: Binding affinity to human non-phosphorylated ABL1 T315I mutant (S229 to K512 residues) expressed in mammalian expression system assessed as residual binding level at 10 uM by Kinomescan method relative to control.
Test [14] addresses Megakaryocyte-associated tyrosine-protein kinase (Homo sapiens) (UniProt P42679). The experiment in a line: Binding affinity to wild-type human full length CTK (M43 to P508 residues) expressed in mammalian expression system assessed as residual binding level at 10 uM by Kinomescan method relative to control.
Test [15] concerns the target Serine/threonine-protein kinase RIO3 (Homo sapiens) (UniProt O14730). The experiment in a line: Binding affinity to wild-type human full length RIOK3 (M1 to E519 residues) expressed in bacterial expression system assessed as residual binding level at 10 uM by Kinomescan method relative to control.
In test [16] the test system is Proto-oncogene tyrosine-protein kinase receptor Ret (Homo sapiens), P07949 [V804M]. The experiment in a line: Binding affinity to human partial length RET V804M mutant (E713 to D1014 residues) expressed in bacterial expression system assessed as residual binding level at 10 uM by Kinomescan method relative to control.
The test system of test [17] is Phosphatidylinositol 4,5-bisphosphate 3-kinase catalytic subunit alpha isoform (Homo sapiens), P42336 [Q546K]. Briefly: Binding affinity to human partial length PIK3CA Q546K mutant (R108 to N1068 residues) expressed in mammalian expression system assessed as residual binding level at 10 uM by Kinomescan method relative to control.
Test [18] concerns the target Serine/threonine-protein kinase PRP4 homolog (Homo sapiens) (UniProt Q13523). Briefly: Binding affinity to wild-type human partial length PRP4 (D657 to I1007 residues) expressed in bacterial expression system assessed as residual binding level at 10 uM by Kinomescan method relative to control.
The target in test [19] is Hormonally up-regulated neu tumor-associated kinase (Homo sapiens) (UniProt P57058). The experiment in a line: Binding affinity to wild-type human partial length HUNK (A31 to K354 residues) expressed in bacterial expression system assessed as residual binding level at 10 uM by Kinomescan method relative to control.
The target of test [20] is Mitogen-activated protein kinase kinase kinase 15 (Homo sapiens) (UniProt Q6ZN16). The experiment in a line: Binding affinity to wild-type human partial length MAP3K15 (T625 to L932 residues) expressed in mammalian expression system assessed as residual binding level at 10 uM by Kinomescan method relative to control.
Test [21] deals with Tyrosine-protein kinase SYK (Homo sapiens) (UniProt P43405). Briefly: Binding affinity to wild-type human partial length SYK (D354 to N635 residues) expressed in bacterial expression system assessed as residual binding level at 10 uM by Kinomescan method relative to control.
Test [22] deals with Mitogen-activated protein kinase 12 (Homo sapiens) (UniProt P53778). Briefly: Binding affinity to wild-type human full length p38-gamma (M1 to L367 residues) expressed in mammalian expression system assessed as residual binding level at 10 uM by Kinomescan method relative to control.
Mitogen-activated protein kinase 12 (Homo sapiens), sequence (P53778 whole entry, the tested form may be a part): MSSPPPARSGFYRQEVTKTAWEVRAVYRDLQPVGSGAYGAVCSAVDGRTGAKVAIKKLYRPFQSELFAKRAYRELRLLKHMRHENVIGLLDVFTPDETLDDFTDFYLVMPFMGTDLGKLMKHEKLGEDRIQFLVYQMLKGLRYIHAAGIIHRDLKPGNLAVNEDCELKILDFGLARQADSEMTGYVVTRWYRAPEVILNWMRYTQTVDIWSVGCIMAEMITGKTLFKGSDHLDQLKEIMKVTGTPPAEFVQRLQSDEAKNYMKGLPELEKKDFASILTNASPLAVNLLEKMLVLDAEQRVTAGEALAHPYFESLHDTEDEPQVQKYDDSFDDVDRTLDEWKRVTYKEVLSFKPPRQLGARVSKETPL
Test [23] has as its target Activin receptor type-1 (Homo sapiens) (UniProt Q04771). Briefly: Binding affinity to wild-type human ACVR1 (C188 to C509 residues) expressed in bacterial expression system assessed as residual binding level at 10 uM by Kinomescan method relative to control.
For test [24], the target named is Serine/threonine-protein kinase BRSK1 (Homo sapiens) (UniProt Q8TDC3). The experiment in a line: Binding affinity to wild-type human partial length BRSK1 (M1 to E754 residues) expressed in bacterial expression system assessed as residual binding level at 10 uM by Kinomescan method relative to control.

Among the data in ChEMBL document CHEMBL4304811, “Development of a Water-Soluble Indolylmaleimide Derivative IM-93 Showing Dual Inhibition of Ferroptosis and NETosis” (ACS Med Chem Lett, 2019) are Activity and inhibition values, retold here.

Molecules are shown by their SMILES. Activity calls are given as the source filed them. The rule behind the calls is not given here.

Megakaryocyte-associated tyrosine-protein kinase (Homo sapiens), sequence (P42679 whole entry, the tested form may be a part): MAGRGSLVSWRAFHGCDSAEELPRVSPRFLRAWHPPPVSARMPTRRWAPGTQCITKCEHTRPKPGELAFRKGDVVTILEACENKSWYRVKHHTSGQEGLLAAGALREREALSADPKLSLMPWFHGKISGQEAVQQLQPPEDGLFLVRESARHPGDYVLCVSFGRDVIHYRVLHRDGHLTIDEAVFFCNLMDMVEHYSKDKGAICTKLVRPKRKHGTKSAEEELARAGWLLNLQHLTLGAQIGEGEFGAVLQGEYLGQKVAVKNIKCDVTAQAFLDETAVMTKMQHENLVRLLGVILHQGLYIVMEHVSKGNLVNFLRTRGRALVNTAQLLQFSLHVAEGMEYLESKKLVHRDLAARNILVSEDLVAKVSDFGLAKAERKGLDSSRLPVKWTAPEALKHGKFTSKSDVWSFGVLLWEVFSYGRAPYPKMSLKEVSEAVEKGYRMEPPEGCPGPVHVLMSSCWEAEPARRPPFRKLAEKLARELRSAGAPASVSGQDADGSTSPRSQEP
Serine/threonine-protein kinase PRP4 homolog (Homo sapiens), sequence (Q13523 whole entry, the tested form may be a part): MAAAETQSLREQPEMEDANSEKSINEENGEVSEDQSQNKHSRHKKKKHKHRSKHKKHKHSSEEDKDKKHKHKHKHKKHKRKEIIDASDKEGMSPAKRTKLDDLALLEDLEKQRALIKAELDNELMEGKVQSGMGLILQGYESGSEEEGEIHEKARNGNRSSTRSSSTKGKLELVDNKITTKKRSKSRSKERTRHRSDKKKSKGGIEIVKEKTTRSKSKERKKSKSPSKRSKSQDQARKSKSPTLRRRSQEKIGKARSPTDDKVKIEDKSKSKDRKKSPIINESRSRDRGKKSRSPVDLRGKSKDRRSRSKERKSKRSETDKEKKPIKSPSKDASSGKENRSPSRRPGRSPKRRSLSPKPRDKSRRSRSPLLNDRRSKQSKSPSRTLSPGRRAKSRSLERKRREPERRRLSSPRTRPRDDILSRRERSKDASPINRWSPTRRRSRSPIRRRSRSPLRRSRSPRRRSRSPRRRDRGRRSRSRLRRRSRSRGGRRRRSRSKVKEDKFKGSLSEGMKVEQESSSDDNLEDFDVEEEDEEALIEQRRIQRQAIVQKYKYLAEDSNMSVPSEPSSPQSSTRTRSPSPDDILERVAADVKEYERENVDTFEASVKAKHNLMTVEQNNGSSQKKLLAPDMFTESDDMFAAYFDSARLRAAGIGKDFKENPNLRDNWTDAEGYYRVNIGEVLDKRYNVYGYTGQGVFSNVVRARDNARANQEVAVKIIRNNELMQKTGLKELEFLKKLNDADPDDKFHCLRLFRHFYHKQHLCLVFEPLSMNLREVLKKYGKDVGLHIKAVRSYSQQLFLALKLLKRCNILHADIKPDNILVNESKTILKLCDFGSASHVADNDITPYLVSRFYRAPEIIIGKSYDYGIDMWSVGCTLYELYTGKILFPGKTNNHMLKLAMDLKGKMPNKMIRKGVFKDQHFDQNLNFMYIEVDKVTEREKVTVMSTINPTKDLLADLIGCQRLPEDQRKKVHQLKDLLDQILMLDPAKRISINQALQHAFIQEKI
Serine/threonine-protein kinase PLK1 (Homo sapiens), sequence (P53350 whole entry, the tested form may be a part): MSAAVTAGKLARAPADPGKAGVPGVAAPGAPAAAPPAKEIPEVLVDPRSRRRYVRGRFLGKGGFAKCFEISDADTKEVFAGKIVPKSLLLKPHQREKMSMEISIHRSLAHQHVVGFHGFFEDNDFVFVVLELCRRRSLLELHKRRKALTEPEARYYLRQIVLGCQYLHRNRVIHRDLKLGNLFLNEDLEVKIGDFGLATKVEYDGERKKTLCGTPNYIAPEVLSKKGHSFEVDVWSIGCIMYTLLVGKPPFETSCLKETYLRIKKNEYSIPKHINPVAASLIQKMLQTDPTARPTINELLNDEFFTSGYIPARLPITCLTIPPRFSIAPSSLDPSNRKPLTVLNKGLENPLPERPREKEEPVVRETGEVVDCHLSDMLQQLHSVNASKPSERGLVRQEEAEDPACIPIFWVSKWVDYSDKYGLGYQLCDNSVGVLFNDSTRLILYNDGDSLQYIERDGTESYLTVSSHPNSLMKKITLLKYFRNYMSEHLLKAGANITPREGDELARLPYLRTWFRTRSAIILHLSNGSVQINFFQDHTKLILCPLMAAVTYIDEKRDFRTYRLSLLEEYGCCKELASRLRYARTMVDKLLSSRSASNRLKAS
Mitogen-activated protein kinase 11 (Homo sapiens), sequence (Q15759 whole entry, the tested form may be a part): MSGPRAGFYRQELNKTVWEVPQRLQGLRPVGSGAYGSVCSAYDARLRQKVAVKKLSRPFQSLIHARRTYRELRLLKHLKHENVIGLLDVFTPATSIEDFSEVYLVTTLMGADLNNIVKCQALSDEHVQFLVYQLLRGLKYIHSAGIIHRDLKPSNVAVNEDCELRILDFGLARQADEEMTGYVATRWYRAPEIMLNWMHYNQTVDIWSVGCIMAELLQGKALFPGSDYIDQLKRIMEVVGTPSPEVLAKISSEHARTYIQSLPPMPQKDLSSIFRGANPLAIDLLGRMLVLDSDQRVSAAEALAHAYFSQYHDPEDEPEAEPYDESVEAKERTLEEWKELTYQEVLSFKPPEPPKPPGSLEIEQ

Consider `CC(C)N1C(=O)C(NCCCN(C)C)=C(c2cn(C)c3ccccc23)C1=O.Cl`, for which the Activity in test [1] came out at 85%; in test [2], 87%; in [3] it was 85%; in [4] it was 100%; in test [5], 90%; in test [6], 93%. The Activity in [7] is 99%; in [8], 98%; in test [9] it was 100%; in test [11], 96%; in test [12] it was 98%; in test [13] it was 93%. Also, the Activity stood at 83% in [14]; 100% in [15]; 97% in [16]; 100% in test [17]; 86% in test [18]; 100% in test [19]. Also, the Activity worked out at 94% in test [20]; 82% in test [21]; 72% in test [22]; 100% in test [23]; 85% in test [24]. Moreover, the inhibition result in test [10] is “Active”.
